Reference: patent US8198317B2, “Methylenedioxy phenolic compounds and their use to treat disease” (The Ohio State University Research Foundation, priority 2008, dated 2012)

Tests used:
ICAM-1 = assay: ELISA of ICAM-1 release from TNF-α stimulated HUVEC; type: cell-based, human; settings: HUVEC pretreated 24 hours, then 2 ng/mL TNF-α for 6 hours
Protocol: (§1) Cell Culture: All experiments were performed with cultured Human Umbilical Vein Endothelial Cells (HUVECs—Gibco, Invitrogen) and grown to confluence at 37° C. in a 5% CO2 humidified incubator, on tissue culture flasks previously coated with 1% gelatin in supplemented culture medium (M199 with 10% heat inactivated fetal calf serum, 100 U/ml penicillin, 100 μg/ml streptomycin, 2 mM glutamine, 10 mM HEPES, pH 7.4, heparin 12 I.U./ml, 1% retinal derived growth factor, Sigma). Following trypsin treatment, the cells were detached from the flasks and final mono-layers were prepared by seeding HUVECs on gelatin-precoated culture plates and then incubated for 24-48 h to ensure confluence. Cells up to the fourth passage were used for all experiments. Recombinant human TNF-α was purchased from R&D Systems (Minneapolis, Minn.).
(§2) Enzyme-Linked Immunosorbent Assay (ELISA): To measure the expression of cell surface adhesion molecules, ELISA technique was utilized (R and D Systems, Minneapolis, Minn.). […]
(§3) Enzyme-Linked Immunosorbent Assay (ELISA) and results: To measure the expression of cell surface adhesion molecules, ELISA technique was utilized. […] The expression of VCAM-1 and ICAM-1 were evaluated after TNF-α stimulation for 6 hours.

VCAM-1 = assay: ELISA of VCAM-1 release from TNF-α stimulated HUVEC; type: cell-based, human; settings: HUVEC pretreated 24 hours, then 2 ng/mL TNF-α for 6 hours
Protocol: as §1, §2, §3

Cardiovascular Patient = assay: Treatment of a patient with acute non-ST elevation myocardial infarction (Examples 11-12); type: in vivo, human; settings: 1.0 to 100 mg/kg in the catheterization laboratory
Protocol: (§4) A person presents with uncomfortable pressure, squeezing and pain in the center of their chest as well as in shoulders, arms, neck, jaw and back for over 4 hours. They also complain of shortness of breath. […] They are given aspirin, clopidogrel, nitrates and IV heparin and taken to the catheterization laboratory. After being evaluated with an angiography, they are diagnosed as suffering from a […] blockage in the left anterior descending coronary artery. The patient is administered a composition comprising an effective amount of 3,4-Methylenedioxy 6-nitro phenyl lipoate (INV-7465) (1.0 to 100 mg/kg) in the catheterization laboratory. Patient reports improvement in the chest pain, shortness of breath. They are again evaluated with an angiography to measure reduced plaque in their arteries.
as §4, with “The patient is administered a composition comprising an effective amount of 3,4-Methylenedioxy 6-nitro phenyl lipoate (INV-7465) (1.0 to 100 mg/kg) in the catheterization laboratory. Patient reports improvement in the chest pain, shortness of breath.” left out

[1] = tested on: Human Umbilical Vein Endothelial Cells (HUVECs); assay: MTT cell toxicity assay; type: cell-based; settings: HUVEC; for cells displaying toxicity: 24 hours
Protocol: as §1
Cell Toxicity Assays: Cellular toxicity was assessed by MTT [3-(4,5-dimethylthiazol-2-yl)-2,5-diphenyltetrazolium bromide] assay, a commercially available assay for assessment of cellular viability. INV-75 was added to HUVECs for 24 hours, and toxicity assays were performed at the end of this period. The MTT assay relies on the cellular reduction of positively charged tetrazolium salts to their intensely colored formazan product by mitochondrial dehydrogenases. Formazan production is decreased in the presence of impaired mitochondrial redox function and enhanced free radical production and may, therefore, be used as an index of cell viability responses to experimental interventions.
In short, after removing microtiter plates from the incubator, fresh medium containing a fixed volume of reconstituted MTT [3-(4,5-dimethylthiazol-2-yl)-2,5-diphenyltetrazlium bromide; final concentration: 0.5 mg/ml] was added to the wells; the plates were kept at 37° C. in a 5% CO2 environment for 2 h, and then the MTT solubilization solution provided by the manufacturer was added. The formazan product formed by the conversion of positively charged tetrazolium salts to the reduced state has low aqueous solubility and is present as purple crystals. Dissolving the formazan with a solubilization buffer (provided in kit) permits the convenient quantification of its formation. Optical density at OD 570 nm is then measured for each well on an absorbance plate reader. The within- and between-assay variability was 3 and 5%, respectively. Various concentrations of INV-75 was tested in cell based assays using the MTT assay, as described above. The concentrations tested ranged from 1 mM to 10 nM and the cells were exposed for over 24 hours in duration (FIG. 2).

Acetyl-CoA Oxidase (ACO) = assay: ACO mRNA (PPARα regulated gene) by RT-PCR in HepG2 cells; type: cell-based, human; settings: HepG2, dose dependent and time dependent
Protocol: ACO is a PPAR-α regulated gene. HepG2 cells were stimulated by INV 75 (100 μM) for the indicated time, the mRNA expression level of ACO was analyzed by real-time RT-PCR. n=3. *, p<0.05 vs 0.
Cells were stimulated with INV-75 for 4 hours, and mRNA expression level of acetyl co-enzyme A oxidase (ACO) analyzed by real-time RT-PCR. n=3. *, p<0.05 vs −8.5.
We used a reporter gene assay in HepG2 cells to screen for agonists of the peroxisome proliferator-activated receptors. Peroxisome proliferator-activated receptors (PPARs) and other members of the nuclear hormone receptor family are important drug targets for the treatment of metabolic diseases. PPARs play crucial roles in lipid and glucose metabolism, respectively. Therefore, screening methods that help to rapidly identify activators of these receptors should be of considerable value. INV-75 activated a classic PPARα gene, Acetyl-CoA Oxidase (ACO) in a dose dependent and time dependent fashion (FIG. 6A). The time course experiment was performed in presence of INV-75 up to 15 hours. […] We next tested the specificity of INV-75 for PPARα by performing experiments in HepG2 cells transfected with yeast GAL4-PPARα-LBD plasmid+UAS-Luciferase; GAL4-PPARδ-LBD plasmid+UAS-Luciferase and GAL4-PPARα-LBD plasmid+UAS-Luciferase. […]

| SMILES | release of ICAM-1 (ICAM-1) | release of VCAM-1 (VCAM-1) | chest pain, shortness of breath (Cardiovascular Patient) | cell toxicity results compared with those of INV-75 ([1]; dose range of 10 nM to 100 μM) | cells displaying toxicity ([1]; 10 nM) | cells displaying toxicity ([1]; 100 nM) | cells displaying toxicity ([1]; 1 μM) | cells displaying toxicity ([1]; 10 μM) | cells displaying toxicity ([1]; 1 mM) | Acetyl-CoA Oxidase (ACO) gene activation (Acetyl-CoA Oxidase (ACO)) |
| --- | --- | --- | --- | --- | --- | --- | --- | --- | --- | --- |
| O=C(CCCCC1CCSS1)Oc1cc2c(cc1[N+](=O)[O-])OCO2 (stereo not shown) [INV-7465, 3,4-Methylenedioxy 6-nitro phenyl lipoate] | marked reduction | marked reduction | improvement | – | – | – | – | – | – | – |
| O=C(CCCCC1CCSS1)Oc1ccc2c(c1)OCO2 (stereo not shown) [INV-7065, 3,4-Methylenedioxy phenyl lipoate] | – | – | – | identical | – | – | – | – | – | – |
| CC(=O)Oc1cc2c(cc1[N+](=O)[O-])OCO2 [INV-75, 3,4-methylenedioxy-6-nitrophenyl acetate] | marked reduction | marked reduction | improvement | – | 2% | 4% | 8% | 7% | 74% | activated |
